# In US20220289794A1, “SYNTHETIC ANTIMICROBIAL PEPTIDES” (priority 2019, published 2022):
# Non-standard residues stand in square brackets, D forms with d. Residues, ends and D or L forms follow the SMILES beside them. Dip = N[C@H](C(=O)O)C(c1ccccc1)c1ccccc1; 2Nal = N[C@@H](Cc1ccc2ccccc2c1)C(=O)O
# Assays:
# [1] = system: Enterococcus faecalis ATCC 51575; conditions: E. faecalis ATCC 51575
# [2] = system: Enterococcus faecium ATCC 27270; conditions: E. faecium ATCC 27270
# [3] = system: Enterococcus faecium ATCC 700221; conditions: E. faecium ATCC 700221
# [4] = system: S. aureus ATCC 29213; conditions: ATCC 29213
# [5] = system: P. aeruginosa (ATCC BAA-1744); experiment: Broad-spectrum activity against Gram-Negative bacteria (MIC); format: cell-based; conditions: Table 16, Gram-negative panel
# [6] = system: E. coli (ATCC BAA-2452); experiment: as above; format: cell-based; conditions: Table 16, Gram-negative panel
# [7] = system: Klebsiella pneumoniae (ATCC BAA-1705); conditions: Table 16, Gram-negative panel
# [8] = system: Streptococcus pneumoniae ATCC 51938; conditions: S. pneumoniae ATCC 51938
# [9] = system: Klebsiella pneumoniae ATCC 13883; conditions: Table 16, Gram-negative panel
# [10] = system: Escherichia coli (ATCC 25922); conditions: ATCC 25922
# [11] = system: Methicillin-resistant Staphylococcus aureus MRSA (ATCC BAA-1556); conditions: ATCC BAA-1556
# [12] = system: A. baumannii (ATCC BAA-1605); experiment: Broad-spectrum activity against Gram-Negative bacteria (MIC); format: cell-based; conditions: Table 16, Gram-negative panel
# [13] = system: B. subtilis (ATCC-6633); experiment: Broad-spectrum activity against Gram-Positive bacteria (MIC); format: cell-based; parameters: unit not given here
# [14] = system: Pseudomonas aeruginosa (ATCC 27883); conditions: ATCC 27883
# [15] = system: P. aeruginosa (ATCC 10145); experiment: Broad-spectrum activity against Gram-Negative bacteria (MIC); format: cell-based; conditions: Table 16, Gram-negative panel
# [16] = system: Enterococcus faecalis ATCC 29212; conditions: E. faecalis ATCC 29212
# [17] = system: B. cereus (ATCC-13061); experiment: Broad-spectrum activity against Gram-Positive bacteria (MIC); format: cell-based; parameters: unit not given here
# [18] = system: human red blood cells; parameters: unit not given beside the values
# [19] = system: Streptococcus pneumoniae ATCC 49619; conditions: S. pneumoniae ATCC 49619
# [20] = system: Escherichia coli (E. Coli, ATCC 25922); conditions: Escherichia coli (ATCC 25922); antibiotic alone
# [21] = system: KPC
# [22] = system: PSA
# [23] = system: E. coli
SMILES,Broad-spectrum activity E. faecalis (ATCC 51575) [1],Broad-spectrum activity E. faecium (ATCC 27270) [2],Broad-spectrum activity E. faecium (ATCC 700221) [3],MIC S. aureus ATCC 29213 [4] [µg/mL],MIC P. aeruginosa (ATCC BAA-1744) [5] [µg/mL],MIC E. coli (ATCC BAA-2452) [6] [µg/mL],MIC K. pneumonia (ATCC BAA-1705) [7] [µg/mL],Broad-spectrum activity S. pneumoniae (ATCC 51938) [8],MIC K. pneumonia (ATCC 13883) [9] [µg/mL],MIC E. coli ATCC 25922 [10] [µg/mL],MIC MRSA ATCC BAA-1556 [11] [µg/mL],MIC A. baumannii (ATCC BAA-1605) [12] [µg/mL],Broad-spectrum activity B. subtilis (ATCC-6633) [13],MIC P. aeruginosa ATCC 27883 [14] [µg/mL],MIC P. aeruginosa (ATCC 10145) [15] [µg/mL],Broad-spectrum activity E. faecalis (ATCC 29212) [16],Broad-spectrum activity B. cereus (ATCC-13061) [17],HC50 [18],Broad-spectrum activity S. pneumoniae (ATCC 49619) [19],further results
"N=C(N)NCCC[C@@H]1NC(=O)[C@H](CCCNC(=N)N)NC(=O)[C@H](C(c2ccccc2)c2ccccc2)NC(=O)[C@H](C(c2ccccc2)c2ccccc2)NC(=O)[C@H](C(c2ccccc2)c2ccccc2)NC(=O)[C@H](CCCNC(=N)N)NC1=O [IFX-002, c[Arg-Arg-Arg-Dip-Dip-Dip]] (cyclo([Dip][Dip][Dip]RRR))",12.5,6.2,6.2,3.1,25,25,12.5,25,50,12.5,3.1,25,6.2,12.5,50,12.5,12.5,205,50,–
"N=C(N)NCCC[C@@H]1NC(=O)[C@H](CCCNC(=N)N)NC(=O)[C@H](CCCNC(=N)N)NC(=O)[C@H](C(c2ccccc2)c2ccccc2)NC(=O)[C@H](C(c2ccccc2)c2ccccc2)NC(=O)[C@H](Cc2c[nH]c3ccccc23)NC1=O [IFX-020, c[Arg-Arg-Arg-Trp-Dip-Dip]] (cyclo([Dip][Dip]RRRW))",12.5,3.1,1.5,–,12.5,6.2,12.5,12.5,50,–,–,25,1.5,–,25,6.2,3.1,180,25,–
"O=C(O)c1cn(C2CC2)c2cc(N3CCNCC3)c(F)cc2c1=O [Ciprofloxacin, reference compound]",–,–,–,–,–,–,–,–,–,–,–,–,–,–,–,–,–,–,–,MIC of antibiotic [20]: 64 µg/mL
"N=C(N)NCCC[C@@H]1NC(=O)[C@H](CCCNC(=N)N)NC(=O)[C@H](C(c2ccccc2)c2ccccc2)NC(=O)[C@H](Cc2c[nH]c3ccccc23)NC(=O)[C@H](C(c2ccccc2)c2ccccc2)NC(=O)[C@H](CCCNC(=N)N)NC1=O [IFX-021, c[Arg-Arg-Arg-Dip-Trp-Dip]] (cyclo([Dip]RRR[Dip]W))",12.5,6.2,3.1,–,25,12.5,12.5,25,> 50,–,–,25,3.1,–,50,12.5,6.2,260,50,–
"N=C(N)NCCC[C@@H]1NC(=O)[C@H](CCCNC(=N)N)NC(=O)[C@H](Cc2ccc3ccccc3c2)NC(=O)[C@H](Cc2ccc3ccccc3c2)NC(=O)[C@H](CCCNC(=N)N)NC(=O)[C@H](CCCNC(=N)N)NC(=O)[C@H](Cc2ccc3ccccc3c2)NC1=O [IFX-019, c[Arg-Arg-NaI-NaI-Arg-Arg-NaI]] (cyclo(R[2Nal]RR[2Nal][2Nal]R))",6.2,1.5,1.5,6.2,12.5,6.2,25,12.5,50,50,6.2,12.5,1.5,50,25,3.1,1.5,325,25,–
"N=C(N)NCCC[C@@H]1NC(=O)[C@H](CCCNC(=N)N)NC(=O)[C@H](CCCNC(=N)N)NC(=O)[C@H](C(c2ccccc2)c2ccccc2)NC(=O)[C@H](C(c2ccccc2)c2ccccc2)NC(=O)[C@H](C(c2ccccc2)c2ccccc2)NC(=O)[C@H](CCCNC(=N)N)NC1=O [IFX-008, c[Arg-Arg-Arg-Arg-Dip-Dip-Dip]] (cyclo(RRRR[Dip][Dip][Dip]))",12.5,3.1,1.5,1.5,12.5,6.2,12.5,12.5,50,12.5,1.5,12.5,1.5,12.5,25,6.2,6.2,190,25,–
"N=C(N)NCCC[C@@H]1NC(=O)[C@H](CCCNC(=N)N)NC(=O)[C@H](C(c2ccccc2)c2ccccc2)NC(=O)[C@H](C(c2ccccc2)c2ccccc2)NC(=O)[C@H](CCCNC(=N)N)NC(=O)[C@H](CCCNC(=N)N)NC(=O)[C@H](C(c2ccccc2)c2ccccc2)NC1=O [IFX-016, c[Arg-Dip-Arg-Arg-Dip-Dip-Arg]] (cyclo(R[Dip]RR[Dip][Dip]R))",12.5,3.1,1.5,6.2,12.5,12.5,25,12.5,50,>100,6.2,12.5,1.5,50,25,6.2,6.2,310,25,–
"N=C(N)NCCC[C@@H]1NC(=O)[C@H](CCCNC(=N)N)NC(=O)[C@H](Cc2ccc3ccccc3c2)NC(=O)[C@H](Cc2ccc3ccccc3c2)NC(=O)[C@H](CCCNC(=N)N)NC(=O)[C@H](CCCNC(=N)N)NC(=O)[C@H](Cc2ccc3ccccc3c2)NC1=O [IFX-018, c[Arg-NaI-Arg-Arg-NaI-NaI-Arg]] (cyclo(R[2Nal]RR[2Nal][2Nal]R))",12.5,1.5,1.5,6.2,25,12.5,25,12.5,50,25,6.2,6.2,1.5,>100,50,6.2,3.1,300,25,–
N=C(N)NCCC[C@@H]1NC(=O)[C@H](CCCNC(=N)N)NC(=O)[C@H](CCCNC(=N)N)NC(=O)[C@H](Cc2c[nH]c3ccccc23)NC(=O)[C@H](Cc2c[nH]c3ccccc23)NC(=O)[C@H](Cc2c[nH]c3ccccc23)NC(=O)[C@H](Cc2c[nH]c3ccccc23)NC(=O)[C@H](CCCNC(=N)N)NC(=O)[C@H](CCCNC(=N)N)NC1=O [[R5W4] IFX-301],–,–,–,–,–,–,–,–,–,–,–,–,–,–,–,–,–,–,–,MIC [21]: 32 µg/mL; MIC [22]: 32 µg/mL; MIC [23]: 16 µg/mL
